Measured values taken from PubChem BioAssay AID1549 (Sanford-Burnham Center for Chemical Genomics, 2009).
The source made the active and inactive calls. The rule behind the calls is not given here.

What follows are compounds tested against Influenza A virus M2 proton channel (A/TW/4845/1999 H1N1) (assay: M2 proton channel binding, NMR based, influenza A virus H1N1 strain (AID 1549)). Conditions: NMR binding screen, M2 protein.
In the case of `CC(=O)Nc1ccc(S(=O)(=O)N(C)C)cc1`, the Kd is reported as > 4 mM (inactive).
For `COc1cc(C(C)=O)ccc1OCC(O)Cn1ccnc1` (configuration not stated), the Kd was > 4 mM (inactive).
With `O=C(NN1C(=O)C2C3C=CC(C3)C2C1=O)C1CC=CCC1` (configuration not stated) the Kd was > 4 mM (inactive).
`Cc1nnc(NC(=O)C(C)Sc2nncn2C)s1` (configuration not stated) was tested, and the Kd was > 4 mM (inactive).
For `CC(C)(C)NC(=O)CN1C(=O)c2ccccc2S1(=O)=O`, the Kd was > 4 mM (inactive).
For `O=C1NC(=S)NC(=O)C1=Cc1ccco1`, the Kd was > 4 mM (inactive).
In the case of `NCc1cc2ccccc2s1`, the Kd is reported as > 4 mM (inactive).
With `COc1ccc2c(CC(=O)O)coc2c1` the Kd was > 4 mM (inactive).
For `Cc1ccn(S(=O)(=O)c2ccc(F)cc2)n1`, the Kd was > 4 mM (inactive).
With `O=C1CNC(=O)N1c1cccc(Cl)c1` the Kd was > 4 mM (inactive).
In the case of `C/C(O)=c1/sc2cc(C)nc(=N)n2c1=O`, the Kd is reported as > 4 mM (inactive).
For `O=C(CSc1nnc2ccccn12)N1CCOCC1`, the Kd was > 4 mM (inactive).
In the case of `COc1c2occc2cc2ccc(=O)oc12`, the Kd is reported as > 4 mM (inactive).
With `Cc1ccc(C)n1-c1ccc(C(=O)N2CCOCC2)cc1` the Kd was > 4 mM (inactive).
With `O=C1NC(=S)NC(=O)C1=Cc1ccccc1O` the Kd was > 4 mM (inactive).
In the case of `O=c1cnnc(NCc2ccc(F)cc2)[nH]1`, the Kd is reported as > 4 mM (inactive).
For `CCn1c(C)c(C(C)=O)c(N2CCOCC2)nc1=S`, the Kd was > 4 mM (inactive).
With `Cc1cc(SCC(=O)c2ccccc2)nc(=O)[nH]1` the Kd was > 4 mM (inactive).
In the case of `Nc1ccc(F)cc1F`, the Kd is reported as > 4 mM (inactive).
For `O=C(O)C1CC(=O)N(CCc2ccc(Cl)cc2)C1` (configuration not stated), the Kd was > 4 mM (inactive).
`C=C(C)[C@@H]1CC[C@]2(CO)CC[C@]3(C)[C@H](CCC4[C@@]5(C)CC[C@H](O)C(C)(C)C5CC[C@]43C)C12` (some centres not stated) was tested, and the Kd was > 4 mM (inactive).
With `NC(=O)CSc1nnc(-c2ccncc2)o1` the Kd was > 4 mM (inactive).
`Cc1sc2nc(-c3ccco3)oc(=O)c2c1C` was tested, and the Kd was > 4 mM (inactive).
In the case of `O=C(NC1=NCCS1)c1ccc([N+](=O)[O-])cc1Cl`, the Kd is reported as > 4 mM (inactive).
`CCOc1ccc(C(=O)c2ccc(OC)c(O)c2O)cc1` was tested, and the Kd was > 4 mM (inactive).
With `Cc1cc(=O)n2nc(-c3ccccc3)sc2n1` the Kd was > 4 mM (inactive).
In the case of `O=C1NC(=S)S/C1=C/c1ccncc1`, the Kd is reported as > 4 mM (inactive).
For `Cc1nnc2ccc(N3CCCC3)nn12`, the Kd was > 4 mM (inactive).
In the case of `Cc1nn(-c2ccccc2)nc1CN`, the Kd is reported as > 4 mM (inactive).
`CC[C@@]1(O)C[C@H](O)c2c(cc3c(c2O)C(=O)c2c(O)ccc(O)c2C3=O)[C@H]1C(=O)OC` was tested, and the Kd was > 4 mM (inactive).
In the case of `CC(=O)CC1(O)C(=O)Nc2ccc(Br)cc21` (configuration not stated), the Kd is reported as > 4 mM (inactive).
`COc1cc2c(cc1OC)[C@@H]1C(=O)c3ccc4c(c3O[C@@H]1CO2)C=CC(C)(C)O4` was tested, and the Kd was > 4 mM (inactive).
`COc1c(-c2ccccc2)oc2c(OC)cccc2c1=O` was tested, and the Kd was > 4 mM (inactive).
`CSc1nc2nccc(N)n2n1` was tested, and the Kd was > 4 mM (inactive).
For `O=C(O)Cn1nnnc1-c1ccc(F)cc1`, the Kd was > 4 mM (inactive).
For `CC(CCC(=O)O)[C@H]1CCC2C3CC[C@@H]4C[C@H](O)CC[C@]4(C)C3C[C@H](O)[C@@]21C` (some centres not stated), the Kd was > 4 mM (inactive).
For `O=C(Nn1cnnc1)c1csc2c1CCCC2`, the Kd was > 4 mM (inactive).
`NCc1ccc(-c2cccs2)s1` was tested, and the Kd was > 4 mM (inactive).
For `Cc1noc(C)c1C(=O)Nc1ccccc1-c1ccccc1`, the Kd was > 4 mM (inactive).
With `CC1(C)CC[C@]2(C)CC[C@]3(C)C(=CCC4[C@@]5(C)CC[C@H](O)C(C)(C)C5CC[C@]43C)C2C1` (some centres not stated) the Kd was > 4 mM (inactive).
For `C[C@@H]1CC[C@H]2[C@@H](C)C(=O)O[C@@H]3OC4(C)CC[C@@H]1[C@]32OO4`, the Kd was > 4 mM (inactive).
For `COc1ccc(C)cc1S(N)(=O)=O`, the Kd was > 4 mM (inactive).
In the case of `COC(=O)CSc1n[nH]c(N)n1`, the Kd is reported as > 4 mM (inactive).
For `C[C@@H]1O[C@@H](O[C@H]2CC[C@]3(C=O)C4CC[C@]5(C)[C@@H](C6=CC(=O)OC6)CC[C@]5(O)C4CC[C@]3(O)C2)[C@H](O)[C@H](O)[C@H]1O` (some centres not stated), the Kd was > 4 mM (inactive).
In the case of `CC(=O)N1CCn2c3c(c(=O)c4cc(C)ccc42)CCC31` (configuration not stated), the Kd is reported as > 4 mM (inactive).
`CC(=O)O[C@H]1CC[C@@]2(C)C(CC[C@]3(C)C2C(=O)C=C2C4[C@@H](C)[C@H](C)CC[C@]4(C(=O)O)CC[C@]23C)C1(C)C` (some centres not stated) was tested, and the Kd was > 4 mM (inactive).
With `O=C1NC(=O)C(c2ccccc2)C(=O)N1` the Kd was > 4 mM (inactive).
With `Cn1cccc1C(=S)N1CCOCC1` the Kd was > 4 mM (inactive).
In the case of `Cc1cc(=O)cc(C)n1NC(N)=S`, the Kd is reported as > 4 mM (inactive).
`Cn1ccc(NC(=S)Nc2cccc([N+](=O)[O-])c2)n1` was tested, and the Kd was > 4 mM (inactive).
In the case of `Cc1noc(C)c1C(=O)N1CCc2ccccc21`, the Kd is reported as > 4 mM (inactive).
In the case of `O=C1CSC(=Nc2ccc(O)cc2)N1`, the Kd is reported as > 4 mM (inactive).
In the case of `Cc1cc(C(=O)NCc2ccccc2Br)no1`, the Kd is reported as > 4 mM (inactive).
For `Cc1ccc(C)c(C(=O)n2cnnc2N)c1`, the Kd was > 4 mM (inactive).
With `NC(=O)N1CCc2ccccc21` the Kd was > 4 mM (inactive).
With `COc1ccc2c(=O)c(OC)c(-c3ccccc3)oc2c1` the Kd was > 4 mM (inactive).
For `Cc1onc(-c2ccccc2)c1C(=O)O`, the Kd was > 4 mM (inactive).
In the case of `OC1CC(c2ccccc2)NC2(CCCC2)C1` (configuration not stated), the Kd is reported as > 4 mM (inactive).
For `COc1cc(C(=S)N2CCC(C(N)=O)CC2)ccc1O`, the Kd was > 4 mM (inactive).
In the case of `CC(=O)Oc1ccc(O)cc1`, the Kd is reported as > 4 mM (inactive).
In the case of `CCN=Cc1c(O)n(-c2ccccc2C)c(=O)[nH]c1=O`, the Kd is reported as > 4 mM (inactive).
`O=C(/C=C/c1ccco1)NC1=NCCS1` was tested, and the Kd was > 4 mM (inactive).
In the case of `Cc1ccccc1NC(=O)CC1SC(N)=NC1=O` (configuration not stated), the Kd is reported as > 4 mM (inactive).
For `O=c1cc(-c2ccc(O)cc2)oc2cc(O)cc(O)c12`, the Kd was > 4 mM (inactive).
In the case of `C=CC(C1=CC(=O)C(OC)=CC1=O)c1ccccc1` (configuration not stated), the Kd is reported as > 4 mM (inactive).
For `CC(=O)NC(=S)Nc1ccccc1C`, the Kd was > 4 mM (inactive).
With `O=C1C2C3CCC(O3)C2C(=O)N1c1ccccc1` (configuration not stated) the Kd was > 4 mM (inactive).
For `OCc1ccc2c(c1)OCCCO2`, the Kd was > 4 mM (inactive).
For `COC(=O)[C@@H]1C(O)CC[C@H]2CN3CCc4c([nH]c5ccccc45)[C@@H]3C[C@@H]21` (some centres not stated), the Kd was > 4 mM (inactive).
With `CCS(=O)(=O)N1CCN(c2ccccc2F)CC1` the Kd was > 4 mM (inactive).
With `CCC(=O)NC(=S)Nc1ccc(N2CCOCC2)cc1` the Kd was > 4 mM (inactive).
`CC(C)NC1CS(=O)(=O)CC1O` (configuration not stated) was tested, and the Kd was > 4 mM (inactive).
`COC(=O)CSc1nnc(-c2ccc(C(=O)O)cc2)o1` was tested, and the Kd was > 4 mM (inactive).
`COc1cc2c(c(OC)c1OC)-c1ccc(OC)c(=O)cc1[C@@H](NC(C)=O)CC2` was tested, and the Kd was > 4 mM (inactive).
In the case of `CC(C)Nc1ncnc2c1nnn2C`, the Kd is reported as > 4 mM (inactive).
`CC(CC(=O)O)n1cccn1` (configuration not stated) was tested, and the Kd was > 4 mM (inactive).
For `COC1(C)CCC2OC2(C)CCC2C1CC2(C)C` (configuration not stated), the Kd was > 4 mM (inactive).
`CCc1cccc(C)c1NC(=O)c1cc(C)oc1C` was tested, and the Kd was > 4 mM (inactive).
`CC(=O)CNc1cc(CNC(C)=O)c(C)cc1C` was tested, and the Kd was > 4 mM (inactive).
In the case of `C=CCCCCCCCCCCCC(O)CC(O)COC(C)=O` (configuration not stated), the Kd is reported as > 4 mM (inactive).
In the case of `Cc1cc(C(=O)Nn2cnnc2)cs1`, the Kd is reported as > 4 mM (inactive).
For `Oc1ccc(-c2n[nH]c(=S)n2Cc2ccco2)cc1`, the Kd was > 4 mM (inactive).
